Columns and labels:
Type in all cases: in vivo, rat
[1] = tested on: OLETF (Otsuka Long Evans Tokushima Fatty) rats; assay: Weight change of OLETF rats administered S-adenosylmethionine; set-up: Body Weight: dose or concentration left out as unconfirmed
Procedure: (§1) 14 six-week-old OLETF (Otsuka Long Evans Tokushima Fatty) rats (Otsuka Research Lab., Tokushima, bred for use as a non-insulin-dependent diabetes mellitus model) were evenly divided into two injection groups. The rats of two groups were administered into the abdominal cavity either with S-adenosylmethionine (SAMe(+) group) or with a vehicle containing L-lysine (SAMe(−) group) at a daily dose of 15 mg/kg body weight for a duration of up to 19 weeks. 7 six-week-old LETO (Long Evans Tokushima Otsuka) rats (Otsuka Research Lab., Tokushima, normal rats) were used as a normal control group (Control group). The rats of each group were examined for their weight changes, and checked by way of conducting glucose load tests and euglycemic hyperinsulinemic clamp tests to measure the effect of S-adenosylmethionine on the insulin secretion and insulin sensitivity.
(§2) Test data were analyzed to represent each test result in the form of mean±standard error mean. Differences in weight changes among the groups were analyzed by ANOVA with Least Significance Difference using SPSS/PC 10.0, and the differences in glucose load and clamp test results, by the Kruskall-Wallis test and checked using the Mann-Whitney probation method. The significance level was set at a p value of 0.05 or below.
(1-1) Weight Change At 0, 1, 2, 4, 8, 13, 16 and 19 weeks after the administration had begun, the weight changes of the rats of the three groups were recorded.

[2] = tested on: OLETF (Otsuka Long Evans Tokushima Fatty) rats; assay: Glucose load test
Procedure: as §1, §2
On the 19th week after the administration had begun, the rats were starved for 6 hours and a 35% glucose solution (0.5 g glucose/kg body weight) was bolus-infused into each rat through the tail artery. At 0, 2, 6, 8, 10, 15, 20 and 30 minites after the infusion, a 200 μl blood sample was taken from the tail artery of each rat, centrifuged and the plasma supernatant was separated. The blood glucose level was determined by employing YSI 2300.
In addition, the glucose loss rate ( % /min) was calculated from the inclination of log-converted values of glucose concentrations measured during 2 to 15 minutes after the infusion. The glucose loss rates of the SAM(+) and SAM(−) groups were similar at 3.69±0.29 and 3.23±0.32%/min, respectively, while that of the Control group was much higher at 5.13±0.29%/min.

[3] = tested on: OLETF (Otsuka Long Evans Tokushima Fatty) rats; assay: Euglycemic hyperinsulinemic clamp test
Procedure: as §1, with “The rats of each group were examined for their weight changes, and checked by way of conducting glucose load tests and euglycemic hyperinsulinemic clamp tests to measure the effect of S-adenosylmethionine on the insulin secretion and insulin sensitivity.” left out
as §2, with “The significance level was set at a p value of 0.05 or below.” left out
Based on the fact that the amount of glucose infused to maintain the steady basal level is equal to the amount of glucose consumed in the body, insulin resistance of each group was determined from the mean glucose infusion rate (mg/kg/min) during the clamp test period. […]

[4] = tested on: SD-based rats; assay: Toxicity of orally administered S-adenosylmethionine
Procedure: 8 six-week-old, specific pathogen-free SD-based rats were evenly divided into four groups, which were orally administered with S-adenosylmethionine suspended in a 0.5% methylcellulose solution at a dose of 50, 100, 200 and 500 mg SAMe/kg body weight, respectively. […] Every 12 hours thereafter, the weight changes of the rats were recorded to examine the effect of S-adenosylmethionine. Further, on the 10th day, the rats were sacrificed and the internal organs were visually examined.

[5] = measurement time period 0-30 min after the infusion

C[S+](CC[C@H](N)C(=O)[O-])C[C@H]1O[C@@H](n2cnc3c(N)ncnc32)[C@H](O)[C@@H]1O (stereo partly drawn) [S-adenosylmethionine]
ratio of weight gain as compared with the SAM(−) group ([1]; OLETF rats, 15 mg/kg/day into abdominal cavity, up to 19 weeks): significantly lower | Body Weight ([1]; week 0): 220 g | Body Weight ([1]; week 1): 299 g | Body Weight ([1]; week 2): 343 g | Body Weight ([1]; week 4): 403 g | Body Weight ([1]; week 8): 464 g | Body Weight ([1]; week 13): 498 g | Body Weight ([1]; week 16): 528 g | Body Weight ([1]; week 19): 565 g | blood glucose levels measured at 6 and 8 minutes after the infusion as compared with the SAM(−) group ([2]; OLETF rats, 19th week of 15 mg/kg/day): significantly lower | Blood Glucose Level ([2]; OLETF rats, 19th week of 15 mg/kg/day, 0 min after 0.5 g/kg glucose infusion): 118 mg/dL | Blood Glucose Level ([2]; OLETF rats, 19th week of 15 mg/kg/day, 2 min after 0.5 g/kg glucose infusion): 368 mg/dL | Blood Glucose Level ([2]; OLETF rats, 19th week of 15 mg/kg/day, 6 min after 0.5 g/kg glucose infusion): 291 mg/dL | Blood Glucose Level ([2]; OLETF rats, 19th week of 15 mg/kg/day, 8 min after 0.5 g/kg glucose infusion): 265 mg/dL | Blood Glucose Level ([2]; OLETF rats, 19th week of 15 mg/kg/day, 10 min after 0.5 g/kg glucose infusion): 257 mg/dL | Blood Glucose Level ([2]; OLETF rats, 19th week of 15 mg/kg/day, 15 min after 0.5 g/kg glucose infusion): 224 mg/dL | Blood Glucose Level ([2]; OLETF rats, 19th week of 15 mg/kg/day, 20 min after 0.5 g/kg glucose infusion): 204 mg/dL | Blood Glucose Level ([2]; OLETF rats, 19th week of 15 mg/kg/day, 30 min after 0.5 g/kg glucose infusion): 172 mg/dL | glucose loss rate ([2]; from inclination of log-converted glucose concentrations, 2 to 15 minutes after the infusion): 3.69±0.29 %/min | area obtained by integrating the blood glucose level curve [2, 5]: 234±9.6 (mg/dl).min | area under blood glucose level curve, difference among SAM(+), SAM(−) and Control groups [2, 5]: no significant differences | mean glucose infusion rate ([3]; 19th week of 15 mg/kg/day, insulin 12 mU/kg/min, clamp period 60 to 120 min): 16.7 ± 1.70 mg/kg/min | insulin resistance ([3]; conclusion from clamp test): effectively lowers the insulin resistance | toxicity ([4]; rat, oral, dose of 500 mg/kg, observed 10 days): no toxicity | autopsy: pathological abnormality of internal organs ([4]; rats, oral 50-500 mg/kg, 10th day): did not develop any pathological abnormality | weight loss ([4]; rats, oral 50-500 mg/kg, 10 day test period): no weight loss | survival at day 10 ([4]; rats, oral single dose 50, 100, 200 and 500 mg/kg): All the rats were alive
